Reference: patent US12077503B2, “Substituted cyclic amides and their use as herbicides” (FMC CORPORATION, priority 2015, dated 2024)

Legend:
Format in all cases: in vivo
[1] = test system: sedge, umbrella (small-flower umbrella sedge, Cyperus difformis); test: Test B flooded paddy test; details: Flood, 250 g ai/ha; 0 to 100 scale where 0 is no effect and 100 is complete control; 13 to 15 d
In short: (§1)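 Response scored visually against untreated controls, 0 = no effect and 100 = complete control, 13–15 d after treatment in the greenhouse. Compounds added to paddy water held 3 cm above soil surface. Treatment given at 2-leaf stage.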

[2] = test system: ducksalad (Heteranthera limosa); test: Test B flooded paddy test; details: Flood, 250 g ai/ha; 0 to 100 scale where 0 is no effect and 100 is complete control; 13 to 15 d
In short: as §1

rice (Oryra sativa) = test: Test B flooded paddy test; details: Flood, 250 g ai/ha; 0 to 100 scale where 0 is no effect and 100 is complete control; 13 to 15 d
In short: as §1

[3] = test system: barnyardgrass (Echinochloa crus-galli); test: Test B flooded paddy test; details: Flood, 250 g ai/ha; 0 to 100 scale where 0 is no effect and 100 is complete control; 13 to 15 d
In short: as §1

Kochia (Kochia scoparia) [4] = test: Test A preemergence; details: for Plant response rating, Kochia: 125 g ai/ha; for Kochia plant response rating (0 to 100 scale, 0 is no effect, 100 is complete control): 500 g ai/ha, visual injury approx. 10 d
In short: (§2)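 Visual injury scores from 0, no effect, to 100, complete control, were assigned versus untreated controls roughly 10 d after treatment in the greenhouse. Test chemicals, formulated with surfactant in a non-phytotoxic solvent, were applied to planted seeds as a preemergence soil spray or postemergence to one- to two-leaf plants 2 to 10 cm tall, in loam–sand soil.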

[5] = test system: ryegrass, Italian (Italian ryegrass, Lolium multiflorum); test: Test A preemergence; details: for Plant response rating, Ryegrass, Italian: 125 g ai/ha; for Ryegrass, Italian plant response rating (0 to 100 scale, 0 is no effect, 100 is complete control): 500 g ai/ha, visual injury approx. 10 d
In short: as §2

[6] = test system: ragweed (common ragweed, Ambrosia elatior); test: Test A preemergence; details: for Plant response rating, Ragweed: 125 g ai/ha; for Ragweed plant response rating (0 to 100 scale, 0 is no effect, 100 is complete control): 500 g ai/ha, visual injury approx. 10 d
In short: as §2

[7] = test system: pigweed (Amaranthus retroflexus); test: Test A preemergence; details: for Plant response rating, Pigweed: 125 g ai/ha; for Pigweed plant response rating (0 to 100 scale, 0 is no effect, 100 is complete control): 500 g ai/ha, visual injury approx. 10 d
[8] = test system: giant foxtail (Setaria faberii); test: Test A preemergence; details: for Plant response rating, Foxtail, Giant: 125 g ai/ha; for Foxtail, Giant plant response rating (0 to 100 scale, 0 is no effect, 100 is complete control): 500 g ai/ha, visual injury approx. 10 d
In short: as §2

[9] = test system: barnyardgrass (Echinochloa crus-galli); test: Test A preemergence; details: for Plant response rating, Barnyardgrass: 125 g ai/ha; for Barnyardgrass plant response rating (0 to 100 scale, 0 is no effect, 100 is complete control): 500 g ai/ha, visual injury approx. 10 d
In short: as §2

corn (Zea mays) = test: Test A postemergence; details: for Corn plant response rating: 125 g ai/ha, visual injury rating on 0 to 100 scale (0 no effect, 100 complete control), approx. 10 d; for Plant response rating, Corn: 500 g ai/ha
In short: as §2

[10] = test system: Galium (catchweed bedstraw, Galium aparine); test: Test A postemergence; details: for Galium plant response rating: 125 g ai/ha, visual injury rating on 0 to 100 scale (0 no effect, 100 complete control), approx. 10 d; for Plant response rating, Galium: 500 g ai/ha
In short: as §2

Kochia (Kochia scoparia) [11] = test: Test A postemergence; details: for Kochia plant response rating: 125 g ai/ha, visual injury rating on 0 to 100 scale (0 no effect, 100 complete control), approx. 10 d; for Plant response rating, Kochia: 500 g ai/ha
In short: as §2

[12] = test system: ryegrass, Italian (Italian ryegrass, Lolium multiflorum); test: Test A postemergence; details: for Ryegrass, Italian plant response rating: 125 g ai/ha, visual injury rating on 0 to 100 scale (0 no effect, 100 complete control), approx. 10 d; for Plant response rating, Ryegrass, Italian: 500 g ai/ha
In short: as §2

[13] = test system: ragweed (common ragweed, Ambrosia elatior); test: Test A postemergence; details: for Ragweed plant response rating: 125 g ai/ha, visual injury rating on 0 to 100 scale (0 no effect, 100 complete control), approx. 10 d; for Plant response rating, Ragweed: 500 g ai/ha
In short: as §2

[14] = test system: blackgrass (Alopecurus myosuroides); test: Test A postemergence; details: for Blackgrass plant response rating: 125 g ai/ha, visual injury rating on 0 to 100 scale (0 no effect, 100 complete control), approx. 10 d; for Plant response rating, Blackgrass: 500 g ai/ha
In short: as §2

[15] = test system: wheat (Triticum aestivum); test: Test A postemergence; details: for Wheat plant response rating: 125 g ai/ha, visual injury rating on 0 to 100 scale (0 no effect, 100 complete control), approx. 10 d; for Plant response rating, Wheat: 500 g ai/ha
In short: as §2

[16] = test system: pigweed (Amaranthus retroflexus); test: Test A postemergence; details: for Pigweed plant response rating: 125 g ai/ha, visual injury rating on 0 to 100 scale (0 no effect, 100 complete control), approx. 10 d; for Plant response rating, Pigweed: 500 g ai/ha
In short: as §2

[17] = test system: giant foxtail (Setaria faberii); test: Test A postemergence; details: for Foxtail, Giant plant response rating: 125 g ai/ha, visual injury rating on 0 to 100 scale (0 no effect, 100 complete control), approx. 10 d; for Plant response rating, Foxtail, Giant: 500 g ai/ha
In short: as §2

[18] = test system: barnyardgrass (Echinochloa crus-galli); test: Test A postemergence; details: for Barnyardgrass plant response rating: 125 g ai/ha, visual injury rating on 0 to 100 scale (0 no effect, 100 complete control), approx. 10 d; for Plant response rating, Barnyardgrass: 500 g ai/ha
In short: as §2

[19] = preemergence, 0 to 100 scale (0 no effect, 100 complete control)
[20] = Preemergence, visual injury after approximately 10 d, 0 to 100 scale where 0 is no effect and 100 is complete control
[21] = postemergence, 0 to 100 scale, 0 no effect, 100 complete control
[22] = Postemergence, 0 to 100 scale where 0 is no effect and 100 is complete control

Row | SMILES | Plant response rating, Sedge, Umbrella [1] | Plant response rating, Ducksalad [2] | Plant response rating, Rice (rice (Oryra sativa)) | Plant response rating, Barnyardgrass [3] | Kochia plant response rating (0 to 100 scale, 0 is no effect, 100 is complete control) (Kochia (Kochia scoparia) [4]; Preemergence) | Ryegrass, Italian plant response rating (0 to 100 scale, 0 is no effect, 100 is complete control) ([5]; Preemergence) | Ragweed plant response rating (0 to 100 scale, 0 is no effect, 100 is complete control) ([6]; Preemergence) | Pigweed plant response rating (0 to 100 scale, 0 is no effect, 100 is complete control) ([7]; Preemergence) | Foxtail, Giant plant response rating (0 to 100 scale, 0 is no effect, 100 is complete control) ([8]; Preemergence) | Barnyardgrass plant response rating (0 to 100 scale, 0 is no effect, 100 is complete control) ([9]; Preemergence) | Corn plant response rating (corn (Zea mays); postemergence) | Galium plant response rating ([10]; postemergence) | Kochia plant response rating (Kochia (Kochia scoparia) [11]; postemergence) | Ryegrass, Italian plant response rating ([12]; postemergence) | Ragweed plant response rating ([13]; postemergence) | Blackgrass plant response rating ([14]; postemergence) | Wheat plant response rating ([15]; postemergence) | Pigweed plant response rating ([16]; postemergence) | Foxtail, Giant plant response rating ([17]; postemergence) | Barnyardgrass plant response rating ([18]; postemergence) | other results
1 | C=C(C)CN1CC(c2cccc(C(F)(F)F)c2)C(C(=O)Nc2cccc(F)c2F)C1=O (stereo not drawn) [Compound 479] | 0 | 20 | 0 | 0 | 0 | 0 | 0 | 0 | 90 | 30 | 0 | 0 | 0 | 0 | 0 | 0 | 0 | 0 | 0 | 0 | Plant response rating, Kochia (Kochia (Kochia scoparia) [4]; [19]): 0; Plant response rating, Ryegrass, Italian [5, 20]: 0; Plant response rating, Ragweed [6, 20]: 0; Plant response rating, Pigweed [7, 20]: 0; Plant response rating, Foxtail, Giant [8, 19]: 80; Plant response rating, Barnyardgrass [9, 19]: 0; Plant response rating, Corn (corn (Zea mays); [21]): 0; Plant response rating, Galium [10, 22]: 0; Plant response rating, Kochia (Kochia (Kochia scoparia) [11]; [22]): 0; Plant response rating, Ryegrass, Italian [12, 22]: 0; Plant response rating, Ragweed [13, 22]: 0; Plant response rating, Blackgrass [14, 21]: 40; Plant response rating, Wheat [15, 22]: 40; Plant response rating, Pigweed [16, 22]: 0; Plant response rating, Foxtail, Giant [17, 22]: 60; Plant response rating, Barnyardgrass [18, 21]: 50
2 | CC(=O)N1CC(c2cccc(C(F)(F)F)c2)C(C(=O)Nc2ccccc2F)C1=O (stereo not drawn) [Compound 503] | 0 | 85 | 0 | 45 | 20 | 50 | 0 | 40 | 90 | 90 | 20 | 30 | 0 | 40 | 30 | 30 | 0 | 0 | 90 | 90 | Plant response rating, Kochia (Kochia (Kochia scoparia) [4]; [20]): 0; Plant response rating, Ryegrass, Italian [5, 20]: 0; Plant response rating, Ragweed [6, 20]: 0; Plant response rating, Pigweed [7, 20]: 0; Plant response rating, Foxtail, Giant [8, 20]: 90; Plant response rating, Barnyardgrass [9, 20]: 90; Plant response rating, Corn (corn (Zea mays); [22]): 80; Plant response rating, Galium [10, 22]: 70; Plant response rating, Kochia (Kochia (Kochia scoparia) [11]; [22]): 0; Plant response rating, Ryegrass, Italian [12, 22]: 70; Plant response rating, Ragweed [13, 22]: 30; Plant response rating, Blackgrass [14, 22]: 70; Plant response rating, Wheat [15, 22]: 40; Plant response rating, Pigweed [16, 22]: 0; Plant response rating, Foxtail, Giant [17, 22]: 90; Plant response rating, Barnyardgrass [18, 22]: 90
3 | CN1CC(c2ccc(Cl)cc2)C(C(=O)Nc2ccc(F)cc2F)C1=O (stereo not drawn) [Compound 436] | 0 | 100 | 0 | 60 | 80 | 60 | 50 | 90 | 100 | 100 | 0 | 60 | 40 | 20 | 0 | 30 | 20 | 20 | 80 | 90 | Plant response rating, Kochia (Kochia (Kochia scoparia) [4]; [19]): 70; Plant response rating, Ryegrass, Italian [5, 19]: 40; Plant response rating, Ragweed [6, 19]: 0; Plant response rating, Pigweed [7, 19]: 80; Plant response rating, Foxtail, Giant [8, 19]: 90; Plant response rating, Barnyardgrass [9, 19]: 90; Plant response rating, Corn (corn (Zea mays); [21]): 40; Plant response rating, Galium [10, 21]: 60; Plant response rating, Kochia (Kochia (Kochia scoparia) [11]; [21]): 70; Plant response rating, Ryegrass, Italian [12, 21]: 50; Plant response rating, Ragweed [13, 21]: 20; Plant response rating, Blackgrass [14, 21]: 40; Plant response rating, Wheat [15, 21]: 40; Plant response rating, Pigweed [16, 21]: 60; Plant response rating, Foxtail, Giant [17, 21]: 90; Plant response rating, Barnyardgrass [18, 21]: 90
4 | O=C(Nc1ccccc1F)C1C(=O)N(c2ccccc2)CC1c1cccc(C(F)(F)F)c1 (stereo not drawn) [Compound 456] | 0 | 0 | 0 | 0 | 0 | 0 | 0 | 0 | 0 | 0 | 0 | 0 | 0 | 0 | 0 | 0 | 0 | 0 | 0 | 0 | Plant response rating, Kochia (Kochia (Kochia scoparia) [4]; [19]): 0; Plant response rating, Ryegrass, Italian [5, 19]: 0; Plant response rating, Ragweed [6, 19]: 0; Plant response rating, Pigweed [7, 19]: 0; Plant response rating, Foxtail, Giant [8, 19]: 0; Plant response rating, Barnyardgrass [9, 19]: 0; Plant response rating, Corn (corn (Zea mays); [21]): 0; Plant response rating, Galium [10, 21]: 0; Plant response rating, Kochia (Kochia (Kochia scoparia) [11]; [21]): 0; Plant response rating, Ryegrass, Italian [12, 21]: 0; Plant response rating, Ragweed [13, 21]: 0; Plant response rating, Blackgrass [14, 21]: 0; Plant response rating, Wheat [15, 21]: 0; Plant response rating, Pigweed [16, 21]: 0; Plant response rating, Foxtail, Giant [17, 21]: 0; Plant response rating, Barnyardgrass [18, 21]: 0
5 | CN1CC(c2ccc(C(F)(F)F)cc2F)C(C(=O)Nc2cccc(F)c2F)C1=O (stereo not drawn) [Compound 472] | 0 | 75 | 20 | 60 | 80 | 80 | 50 | 90 | 90 | 90 | 40 | 50 | 60 | 40 | 0 | 30 | 30 | 60 | 80 | 90 | Plant response rating, Kochia (Kochia (Kochia scoparia) [4]; [19]): 80; Plant response rating, Ryegrass, Italian [5, 20]: 50; Plant response rating, Ragweed [6, 20]: 0; Plant response rating, Pigweed [7, 20]: 80; Plant response rating, Foxtail, Giant [8, 19]: 90; Plant response rating, Barnyardgrass [9, 19]: 90; Plant response rating, Corn (corn (Zea mays); [21]): 80; Plant response rating, Galium [10, 22]: 50; Plant response rating, Kochia (Kochia (Kochia scoparia) [11]; [22]): 70; Plant response rating, Ryegrass, Italian [12, 22]: 60; Plant response rating, Ragweed [13, 22]: 0; Plant response rating, Blackgrass [14, 21]: 60; Plant response rating, Wheat [15, 22]: 60; Plant response rating, Pigweed [16, 22]: 60; Plant response rating, Foxtail, Giant [17, 22]: 90; Plant response rating, Barnyardgrass [18, 21]: 90
